In patent US20150126507A1, “COMPOUNDS TO TREAT HEARING LOSS” (Fate Therapeutics, Inc., priority 2013, published 2015):
Entries after “also recorded” stand apart in the source; their conditions may differ.

Legend:
Type in all cases: cell-based
[1] = tested on: Atoh1 enhancer reporter in HEK293 cells; assay: Atoh1 reporter cell line, firefly luciferase normalized to renilla luciferase; conditions: Homo sapiens, HEK293, 48 h, Atoh1 reporter HEK293 cells, treated 2 days, dose response; read-out: ED50 (the source's name)
Method: FIG. 2. Dose response data for selected hits. Atoh1 reporter cells plated in 384 well plates were treated with test compounds or vehicle controls for 2 days. Firefly luciferase signal was measured and normalized to the renilla luciferase signal. Results from duplicate wells (circles and triangles) are expressed relative to normalized controls treated with DMSO.
A reporter cell line expressed in HEK293 cells in which Atoh1 enhancer elements flanked a minimal promoter driving firefly luciferase expression was created. Dose response data was generated in the reporter cell line. Atoh1 reporter cells plated in […] plates were treated with test compounds or vehicle controls for 2 days. Firefly luciferase signal was measured and normalized to the renilla luciferase signal.
For high-throughput screening, HEK293 cells were transduced with a lentiviral vector containing a concatamer of Atoh1 enhancer A and B elements, the Promega minP minimal promoter, firefly luciferase coding sequence and hygromycin selectable marker. After selection, the cells were transduced with a second lentiviral vector containing the EF1α constitutive promoter, Renilla luciferase and puromycin selectable marker. A clonal derivative expressing both transgenes was expanded and banked for screening.
A screening assay was done by plating 8000 cells/well in 384 well plates, and treating for 48 hours with 1 and 10 μM test compound in DMSO, vehicle control, or the GSK-3B inhibitor, BIO, as a positive control. Firefly and Renilla luciferase were measured sequentially using Dual-Glo (Promega) with an Envision multi-label plate reader (Perkin Elmer). Data were analyzed after normalizing firefly luciferase signals to Renilla luciferase signals. A primary screen of 50,000 diverse compounds identified 140 hits. […] 10 of these 41 hits were selected for further analysis
To confirm activity in the 10 selected hits, the test compounds were reassayed at 3.3×10^−9, 1×10^−8, 3.3×10^−8, 1×10^−7, 3.3×10^−7, 1×10^−6, 3.3×10^−6 and 1×10^−5 molar concentrations. […] Results from duplicate wells (circles and triangles) are expressed relative to normalized controls treated with DMSO.

[2] = tested on: Atoh1 expression in P5 rat cochlear explants; assay: Cochlear explant assay, Atoh1 expression by qRT-PCR after tobramycin pretreatment; conditions: 1 mM tobramycin pretreatment, then compound vs DMSO
Method: FIG. 3. Postnatal day 5 rat cochleae were cultured for 2 days with 1 mM tobramycin and then 3 days with test compound or vehicle. Relative Atoh1 expression was measured by qRT-PCR. Results are expressed as average±S.D. for >7 individual cochleae per treatment group. * p<0.05, student's t-test.
The ten selected hits of Example 43 were assayed for the ability to induce Atoh1 expression in primary cultured cochlear explants from the neonatal rat. Postnatal day 5 (P5) rat cochlear explants were cultured with the ototoxic aminoglycoside antibiotic, tobramycin (1 mM), for 3 days prior to drug testing, as an in vitro model of drug-induced hearing loss. […] See, e.g., Ruedi, et al., Larynoscope 62:333-357 (1952). After the 3 day tobramycin pretreatment, the cochlear explants were cultured with the compounds of Example 43 or DMSO vehicle for an additional 2 days. Atoh1 expression levels, measured by qRT-PCR and normalized to ribosomal 18S expression, after hit compound treatments are shown in FIG. 3.

[3] = tested on: Atoh1-GFP mouse cochlear explants; assay: Atoh1-GFP reporter mouse cochlear explants, confocal imaging and immunostaining; conditions: 40 μM, 3 days
Method: FIG. 4. Confocal images of E13 and P0 Atoh1-GFP mouse cochlear explants cultured for 3 days in 40 μM Compound 4 or DMSO and immunostained with antibodies against the supporting cell marker Sox2 (red), the hair cell marker MyosinVIIa (Myo7a, blue) and an anti-GFP antibody (green). […] Scale bars: A and B (50 μm); C and E (500 μm); D and F (25 μm).
To identify which cells expressed Atoh1 after hit compound treatment, we utilized cochlear explants from embryonic and postnatal Atoh1-GFP reporter mice. See, e.g., Lumpkin, et al., Gene Expression Patterns 3:389-395 (2003). Both embryonic and neonatal cochleae were used in order to identify if there was a temporal window in which tissue was more responsive to drug treatment.

Atoh1 reporter cell line = assay: Transcriptional profiling of Atoh1 reporter cell line by gene profiling microarray; conditions: 5 μM, 2 days, vs DMSO
Method: FIG. 5. An Atoh1 reporter cell line was treated with 5 μM Compound 4 or DMSO for 2 days. Gene expression was measured with a gene profiling microarray and plotted.
In an attempt to identify the signaling pathway by which Compound 4 induces Atoh1 expression, transcriptional profiling of the Atoh1 reporter cell line was compared after treatment with Compound 4 or DMSO control. The Atoh1 reporter cell line was treated with 5 μM or Compound 4 or DMSO for 2 days. […] An upregulation of endogenous Atoh1 with Compound 4 treatment in the reporter line was not observed, presumably because the overexpressed reporter sequence outcompeted the native Atoh1 regulatory domain. […] See, e.g., Martinez, et al., Toxicol. Sci. 82:429-435, (2004); Ito, et al., J. Immunotoxicol. 3(1):21-30 (2006); and Sun, et al., Nucleic Acids Res. 32(15):4512-4523 (2004). […] See, e.g., Qian, et al., J. Immunol. 166:2553-2561 (2001) and Kimura, et al., Biochem. Biophys. Res. Comm. 264:86-92 (1999).

[4] = P0 Atoh1-GFP mouse cochlear explants

In the case of `Cc1c(C(=O)Nc2nccs2)oc2ccccc12` [Compound 4], the EC50 [1] is reported as 1300 nM, the “Atoh1 expression by qRT-PCR normalized to ribosomal 18S” value [2] is reported as “largest stimulation of Atoh1 expression” and the “averaged total length of the organ of Corti vs DMSO” value ([3]; Atoh1-GFP mouse cochlear explants) is reported as “no difference”. For the same compound, the “GFP+ hair cells in E13 explants vs DMSO control” value ([3]; E13 Atoh1-GFP mouse cochlear explants) was “greater number of GFP-positive hair cells; also recorded: increase in GFP+ hair cells”, the “GFP+ hair cells with Sox2+ nuclei in P0 explants” value [3, 4] was “numerous ectopic GFP+ hair cells with weak nuclear Sox2 expression; also recorded: numerous GFP+/MyosinVIIa+ cells were observed to have Sox2+ nuclei” and the “GFP-positive hair cell domain in P0 explants vs DMSO control” value [3, 4] was “expansion in the GFP+ hair cell domain; also recorded: expansion of the GFP-positive hair cell domain”. The “upregulation of annotated genes (EGR1, SCIN, CYP1A1, CYP1B1, TACT, MAFF)” value (Atoh1 reporter cell line) was “greater than 3 fold” and the “upregulation of endogenous Atoh1” value (Atoh1 reporter cell line) was “not observed”.
